Experimental findings from ChEMBL document CHEMBL5550220, “Discovering New Metallo-Deubiquitinase CSN5 Inhibitors by a Non-Catalytic Activity Assay Platform” (J Med Chem, 2024) are described below.

A word on the IC50: it is the concentration that gives 50% inhibition. As usually defined, the ΔTm is the change in melting temperature against a reference sample.

Activity calls are given as the source filed them. The calls are words filed in the database; no cut-off is given here.

The target in test [1] is T1, COP9 signalosome complex subunit 5 (Homo sapiens, UniProt Q92905). The test can be described thus: Inhibition of N-terminal His6-tagged CSN5 (2 to 257 residues) (unknown origin) transfected in Transetta cells preincubated for 20 mins followed by N-(2-(3-(3',6'-dihydroxy-3-oxo-3H-spiro[isobenzofuran-1,9'-xanthen]-5-yl)thioureido)ethyl)-3-(2-(5-methyl-[1,1'-biphenyl]-2-yl)-1H-pyrrolo[2,3-b]pyridin-3-yl)propanamide probe addition and measured after 1 hr by fluorescence polarization assay. For orientation: Fluorescence polarisation rises when a labelled molecule tumbles more slowly, as on binding a larger partner.
Target sequence in this assay (Q92905 whole entry, the tested form may be a part, one chain of several): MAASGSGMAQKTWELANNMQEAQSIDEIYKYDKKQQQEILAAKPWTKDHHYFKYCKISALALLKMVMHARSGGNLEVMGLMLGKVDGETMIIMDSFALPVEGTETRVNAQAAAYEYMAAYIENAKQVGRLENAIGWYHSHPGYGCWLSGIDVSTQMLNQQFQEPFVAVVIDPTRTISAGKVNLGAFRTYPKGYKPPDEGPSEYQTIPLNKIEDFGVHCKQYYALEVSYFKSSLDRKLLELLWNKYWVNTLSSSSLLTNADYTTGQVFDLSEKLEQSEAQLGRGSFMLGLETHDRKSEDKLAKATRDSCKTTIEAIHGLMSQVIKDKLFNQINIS

The test system of a further test is A-375. Nature of the test: Antiproliferative activity against human A-375 cells assessed as inhibition of cell proliferation measured after 3 days by MTT assay. Type of test: functional, cell-based. The note with it: A-375, 72 h. In general terms: Formazan colour is commonly taken as a measure of viable cells.
The target of test [2] is T1, COP9 signalosome complex subunit 5. Nature of the test: Inhibition of N-terminal His6-tagged CSN5 (2 to 257 residues) (unknown origin) transfected in Transetta cells preincubated for 20 mins followed by N-(2-(3-(3',6'-dihydroxy-3-oxo-3H-spiro[isobenzofuran-1,9'-xanthen]-5-yl)thioureido)ethyl)-3-(2-(5-methyl-[1,1'-biphenyl]-2-yl)-1H-pyrrolo[2,3-b]pyridin-3-yl)propanamide probe addition and measured after 1 hr by fluorescence based microplate reader assay. Type of test: cell-based.
Target sequence in this assay (Q92905 whole entry, the tested form may be a part, one chain of several): as above

Test [3] concerns HepG2. Nature of the test: Antiproliferative activity against human HepG2 cells assessed as inhibition of cell proliferation measured after 3 days by MTT assay. Type of test: functional, cell-based. The note with it: HepG2, 72 h.
Test [4] relates to HCT-116. Nature of the test: Antiproliferative activity against human HCT-116 cells assessed as inhibition of cell proliferation measured after 3 days by MTT assay. Type of test: functional, cell-based. To be noted: HCT-116, 72 h.
Test [5] concerns MDA-MB-231. The test can be described thus: Antiproliferative activity against human MDA-MB-231 cells assessed as inhibition of cell proliferation measured after 3 days by MTT assay. Type of test: functional, cell-based. To be noted: MDA-MB-231, 72 h.
Test [6] deals with HCT-116. Nature of the test: Upregulation of PD-L1 protein expression in human HCT-116 cells at 30 uM by Western blot analysis. Type of test: functional, cell-based. (Immunoblotting shows a protein as a band on a membrane.)
In test [7] the test system is HCT-116. Nature of the test: Upregulation of PD-L1 level in human HCT-116 cells at 30 uM by Western blot analysis. Type of test: functional, cell-based.
The target in test [8] is T1, COP9 signalosome complex subunit 5. Nature of the test: Inhibition of CSN5 in human HCT-116 cells assessed as increase in NEDD8-Cul1 level by Western blot analysis. Type of test: cell-based. The note with it: dose 3-30 µM.
Target sequence in this assay (Q92905 2-334 limits assumed, one chain of several): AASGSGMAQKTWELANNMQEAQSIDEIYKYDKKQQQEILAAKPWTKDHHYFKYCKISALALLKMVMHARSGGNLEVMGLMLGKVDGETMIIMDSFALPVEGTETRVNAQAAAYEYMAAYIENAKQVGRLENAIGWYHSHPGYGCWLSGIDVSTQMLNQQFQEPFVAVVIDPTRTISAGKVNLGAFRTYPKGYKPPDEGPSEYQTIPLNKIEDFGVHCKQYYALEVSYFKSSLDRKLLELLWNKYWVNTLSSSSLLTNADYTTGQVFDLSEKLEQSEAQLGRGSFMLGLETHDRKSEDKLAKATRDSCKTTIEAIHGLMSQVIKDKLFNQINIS
The target is the same in test [9]. The test can be described thus: Inhibition of N-terminal His6-tagged CSN5 (2 to 257 residues) (unknown origin) transfected in Transetta cells preincubated with N-(2-(3-(3',6'-dihydroxy-3-oxo-3H-spiro[isobenzofuran-1,9'-xanthen]-5-yl)thioureido)ethyl)-3-(2-(5-methyl-[1,1'-biphenyl]-2-yl)-1H-pyrrolo[2,3-b]pyridin-3-yl)propanamide probe followed by compound addition by fluorescence based microplate reader assay. Type of test: cell-based.
Target sequence in this assay (Q92905 2-334 limits assumed, one chain of several): as above

For test [10] the target is unchanged. Nature of the test: Binding affinity to N-terminal His6-tagged CSN5 (2 to 257 residues) (unknown origin) transfected in Transetta cells assessed as decrease in tryptophan fluorescence intensity incubated for 10 mins by fluorescence quenching based microplate reader analysis. Type of test: cell-based. The note with it: dose 0-100 µM.
Target sequence in this assay (Q92905 2-334 limits assumed, one chain of several): as above
Test [11] shares this target. Nature of the test: Inhibition of CSN5 in human MDA-MB-231 cells assessed as increase in NEDD8-Cul1 level by Western blot analysis. Type of test: cell-based. To be noted: dose 3-30 µM.
Target sequence in this assay (Q92905 2-334 limits assumed, one chain of several): as above
For test [12] the target is unchanged. The test can be described thus: Inhibition of CSN5 in human HepG2 cells assessed as increase in neddylation of cullin1 by Western blot analysis. Type of test: cell-based. The note with it: dose 0.3-3 µM.
Target sequence in this assay (Q92905 2-334 limits assumed, one chain of several): as above
The target is the same in test [13]. Nature of the test: Inhibition of CSN5 in human HepG2 cells assessed as increase in neddylation of cullin1 at 3 uM by Western blot analysis. Type of test: cell-based.
Target sequence in this assay (Q92905 2-334 limits assumed, one chain of several): as above
For test [14], the system named is HCT-116. Nature of the test: Upregulation of PD-L1 level in human HCT-116 cells at 3 uM by Western blot analysis. Type of test: functional, cell-based.
In test [15] the test system is HepG2. Nature of the test: Effect on PD-L1 level in human HepG2 cells at 0.3 to 3 uM by Western blot analysis. Type of test: functional, cell-based. To be noted: dose 0.3-3 µM.
The test system of test [16] is HCT-116. Nature of the test: Effect on CSN5 protein level in human HCT-116 cells at 3 uM by Western blot analysis. Type of test: functional, cell-based.
The target in test [17] is T1, COP9 signalosome complex subunit 5. The test can be described thus: Binding affinity to N-terminal His6-tagged Zn-II deficient CSN5 (2 to 257 residues) (unknown origin) transfected in Transetta cells assessed as tryptophan fluorescence change at 0 to 100 uM incubated for 10 mins by fluorescence quenching based microplate reader analysis. The note with it: dose 0-100 µM. Type of test: cell-based.

For test [18] the target is unchanged. Nature of the test: Inhibition of CSN5 in human HCT-116 cells assessed as increase in neddylation of cullin1 at 3 uM by Western blot analysis. Type of test: cell-based.
The target is the same in test [19]. The note with it: dose 50.0 µM.
Description: Thermal stabilization of N-terminal His6-tagged CSN5 (2 to 257 residues) (unknown origin) transfected in Transetta cells assessed as change in melting temperature at 50 uM by SYPRO orange dye based thermal shift assay
Test [20] relates to HepG2. The test can be described thus: Effect on CSN5 protein level in human HepG2 cells at 3 uM by Western blot analysis. Type of test: functional, cell-based.
The subject of test [21] is MDA-MB-231. The test can be described thus: Downregulation of PD-L1 protein expression in human MDA-MB-231 cells at 3 to 30 uM by Western blot analysis. Type of test: functional, cell-based. The note with it: dose 3-30 µM.
Test [22] concerns HCT-116. The test can be described thus: Downregulation of PD-L1 protein expression in human HCT-116 cells at 30 uM by Western blot analysis. Type of test: functional, cell-based.

`CC(C)=CC[C@@H](OC(=O)C(C)C)C1=CC(=O)c2c(O)ccc(O)c2C1=O` [ISOBUTYLSHIKONIN]: the IC50 is 0.6 µM in test [1]; 1710 nM in the test on A-375; 1.17 µM in test [2]; 8.73 µM with HepG2 [3]; 1.73 µM in the test on HCT-116 [4].

`CC(C)(C)c1ccc(CCc2sc(N)nc2C(=O)O)cc1`: the IC50 is 19.1 µM in [1]; 52.5 µM with MDA-MB-231 [5]; 29.8 µM in [2]; above 100 µM in the test on HepG2 [3]; 52 µM in the test with HCT-116 [4].

As for `Cc1ccc(-c2[nH]c3ncccc3c2CCC(=O)N2CCOC[C@H]2c2nc3ccccc3[nH]2)c(-c2ccccc2)c1`, the result with HCT-116 [6] and in the test on HCT-116 [7] was Active.

For the molecule `CC(C)Cc1sc(N)nc1C(=O)O`, the IC50 in [1] and in test [2] was above 300 µM each time.

On to `Cc1ccc(CCc2sc(N)nc2C(=O)O)o1`, for which the IC50 was 188 µM in [1] and 163 µM in [2].

Take `CC(=O)O[C@H](CC=C(C)C)C1=CC(=O)c2c(O)ccc(O)c2C1=O` [ACETYLSHIKONIN]: the IC50 stood at 0.43 µM in [1]; 1910 nM in the test on A-375; 1.07 µM in test [2]; 6.48 µM with HepG2 [3]; 3.56 µM in the test on HCT-116 [4].

In the case of `Nc1nc(C(=O)O)c(CCc2ccc(Br)cc2)s1`, the IC50 is 65.5 µM in test [1]; 34.1 µM in the test with MDA-MB-231 [5]; 64.6 µM in test [2]; above 100 µM with HepG2 [3]; 55.6 µM with HCT-116 [4].

Take `CC(C)c1ccc(Cc2sc(N)nc2C(=O)O)cc1`: the 50% inhibitory concentration (IC50) is 111 µM in test [1] and 80.1 µM in test [2].

For the molecule `CC(Cc1ccc(C(C)(C)C)cc1)c1sc(N)nc1C(=O)O` (stereo unspecified), the IC50 in test [1] was 12.6 µM; with MDA-MB-231 [5], 22.8 µM; in test [2], 19 µM; with HepG2 [3] it was 39.1 µM; in the test on HCT-116 [4] it was 24.1 µM. In addition, the inhibition entry in test [8] and in test [11] was “Dose-Dependent Effect” in each case. Also, the inhibition result in [9] was “Active”. Also, in [10], the Activity entry is “Dose-Dependent Effect”.

Regarding `CC(C)(C)c1ccc(Cc2sc(N)nc2C(=O)O)cc1`, the figures for the IC50 in test [1] and in test [2] were 92.1 µM and 83.2 µM, respectively.

In the case of `CC(C)=CC[C@@H](O)C1=CC(=O)c2c(O)ccc(O)c2C1=O` [SHIKONIN], in [12], the inhibition entry was “Dose-Dependent Effect”. Moreover, the IC50 in test [1] was 0.19 µM; with A-375, 700 nM; in [2], 0.41 µM; in the test with HepG2 [3], 2.96 µM; with HCT-116 [4] it was 0.52 µM. In addition, the inhibition result in [13], in test [9] and in [18] was “Active” throughout. Also, the result in the test with HCT-116 [14] was Active. The outcome (in the test on HepG2 [15]; with HCT-116 [16]; in test [17]; in the test on HepG2 [20]) was inactive. For the same molecule, the Activity result in test [10] is “Dose-Dependent Effect”. Further, the ΔTm in test [19] came out at 1 °C.

`CCCCc1sc(N)nc1C(=O)O`: the IC50 in test [1] and in [2] was above 300 µM in each case.

As to `CC(C)c1ccc(CC(C)c2sc(N)nc2C(=O)O)cc1` (stereo unspecified), the IC50 in [1] turned out to be 13.5 µM; with MDA-MB-231 [5], 14 µM; in test [2], 14.9 µM; in the test with HepG2 [3] it was 37.3 µM; in the test on HCT-116 [4] it was 16.3 µM. Moreover, the Activity result in test [10] was “Dose-Dependent Effect”.

Take `CC(C)=CCCC1=CC(=O)c2c(O)ccc(O)c2C1=O` [DEOXYSHIKONIN]: the IC50 came to 2.51 µM in test [1]; 6830 nM in the test with A-375; 4.81 µM in test [2]; 10.5 µM in the test with HepG2 [3]; 15.5 µM in the test with HCT-116 [4]. In addition, the inhibition result in test [13] and in [18] was “Active” in each case. Also, the result with HCT-116 [14], in the test on HCT-116 [16] and in the test on HepG2 [20] was inactive. For the same molecule, the Activity entry in test [10] is “Dose-Dependent Effect”.

For `Nc1nc(C(=O)O)c(CCc2cccc3ccccc23)s1`, the IC50 came out at 30.3 µM in test [1]; 22.4 µM in the test on MDA-MB-231 [5]; 28.3 µM in test [2]; 30.8 µM in the test with HepG2 [3]; 17.7 µM in the test with HCT-116 [4].

For the molecule `Nc1nc(C(=O)O)c(CCc2ccc(Cl)cc2Cl)s1`, the IC50 is 41.7 µM in test [1]; above 100 µM in the test with MDA-MB-231 [5]; 41.7 µM in [2]; above 100 µM in the test on HepG2 [3]; 56.5 µM with HCT-116 [4].

Turning to `O=C1C=CC(=O)c2c(O)ccc(O)c21` [NAPHTHAZALIN], the IC50 turned out to be 0.17 µM in test [1]; 8850 nM in the test with A-375; 0.91 µM in test [2]; 4.97 µM in the test on HepG2 [3]; 1.04 µM in the test on HCT-116 [4].

As for `CC(C)=CC[C@H](O)C1=CC(=O)c2c(O)ccc(O)c2C1=O` [ALKANNIN], the IC50 amounted to 0.27 µM in [1]; 1420 nM in the test on A-375; 0.8 µM in [2]; 4.86 µM with HepG2 [3]; 0.83 µM in the test on HCT-116 [4]. The ΔTm in [19] came out at 1 °C.

In the case of `COc1ccc2cc([C@@H](C)c3sc(N)nc3C(=O)O)ccc2c1`, the IC50 is 26.9 µM in test [1]; 68.3 µM with MDA-MB-231 [5]; 16.8 µM in test [2]; 52.1 µM with HepG2 [3]; 40.9 µM with HCT-116 [4]. Also, the inhibition entry in test [8] and in [11] was “Dose-Dependent Effect” in each case. The result with MDA-MB-231 [21] and in the test on HCT-116 [22] was Active. In addition, the inhibition result in [9] was “Active”. The Activity entry in test [10] was “Dose-Dependent Effect”.
